These are literature values, as cited in US20250325473A1, “COLLAGEN-IMPREGNATED DEVICES AND METHODS FOR TREATMENT OF CANCER” (COLLAGEN MATRIX, INC., priority 2022, published 2025).

Square brackets hold non-standard residues; d marks the D form. Ends that are not written are not given here. Hyp = O=C(O)[C@@H]1C[C@@H](O)CN1

Holding throughout (parameters): key: A plus sign (+) indicates a response similar in peptides II-22, III-23, or GPS-GFO (control); a minus sign (−) Indicates less than 20% of control; +/−: +/ − indicates 20-80% of control
For data set [1], the system named is DDR1-Fc or DDR1-Fc2. To be noted: binding to DDR1-Fc or DDR1-Fc2, response relative to control peptides II-22, III-23 or GPS-GFO; guest sequences flanked by (GPP).
DDR1-Fc or DDR1-Fc2, sequence (Q08345 31-185 limits assumed): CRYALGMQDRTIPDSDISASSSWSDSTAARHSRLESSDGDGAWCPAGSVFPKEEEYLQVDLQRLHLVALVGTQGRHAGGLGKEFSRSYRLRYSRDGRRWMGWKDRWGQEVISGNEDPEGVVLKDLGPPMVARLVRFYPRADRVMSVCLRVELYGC
Data set [2] deals with His-DDR2 or DS2-Fc. To be noted: binding to His-DDR2 or DS2-Fc, response relative to control peptides II-22, III-23 or GPS-GFO; guest sequences flanked by (GPP).
His-DDR2 or DS2-Fc, sequence (Q16832 30-185 limits assumed): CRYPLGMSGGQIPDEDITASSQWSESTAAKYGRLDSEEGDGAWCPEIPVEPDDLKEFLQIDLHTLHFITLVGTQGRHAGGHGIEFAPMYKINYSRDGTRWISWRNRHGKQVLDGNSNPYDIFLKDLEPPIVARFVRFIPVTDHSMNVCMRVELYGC
Data set [3] has as its system DDR2-Fc or DDR2-Fc2. The note with it: binding to DDR2-Fc or DDR2-Fc2, response relative to control peptides II-22, III-23 or GPS-GFO; includes data from Konitsiotis et al. 2008.
DDR2-Fc or DDR2-Fc2, sequence (Q16832 30-185 limits assumed): as above

As to “GFOGPK (GF[Hyp]GPK; not fully specified)”, in data set [1], the DDR1 binding result was “− (a minus sign (−) indicates less than 10% of control)”. For the same substance, the figures for the DDR2 binding result in data set [2] and in data set [3] were “− (a minus sign (−) Indicates less than 20% of control)” and “− (a minus sign (−) indicates less than 10% of control)”, respectively.

With GARGFOGTOGLOGVKGRRGYOGLDGAK [II-5], the DDR1 binding result in data set [1] is recorded as “− (a minus sign (−) indicates less than 10% of control)”. Also, in data set [3], the DDR2 binding result is “+/− ((+/− indicates 30-80% of control)”.

For “GPSGPRGQOGVMGFA (GPSGPRGQ[Hyp]GVMGFA; not fully specified) [GPS-CFO-15A]”, the DDR1 binding entry in data set [1] is on record as “(+)/− ((+)/− indicates 20-30% of control)”. The DDR2 binding result in data set [2] is given as “+/− (+/ − indicates 20-80% of control)”; in data set [3], “+/− ((+/− indicates 30-80% of control)”.

In the case of “GARGQOGVMGFO (GARGQ[Hyp]GVMGF[Hyp]; not fully specified) [GAR-GFO]”, in data set [1], the DDR1 binding entry is “+”.

Take “(GAP) -GPRGQOGVMGFO-(GAP) (GAPGAPGAPGAPGAPGPRGQ[Hyp]GVMGF[Hyp]GAPGAPGAPGAPGAP; not fully specified) [GAP-GPR-GFO, non-helical peptide flanked by (GAP) instead of (GPP)]”: in data set [1], the DDR1 binding entry is “− (a minus sign (−) indicates less than 10% of control)”. For the same substance, the figures for the DDR2 binding result in data set [2] and in data set [3] were “+/− (+/ − indicates 20-80% of control)” and “− (a minus sign (−) indicates less than 10% of control)”, respectively.

Regarding GPRGQOGVMGFO [GPR-GFO], the DDR1 binding result in data set [1] is reported as “+”. In addition, the DDR2 binding result in data set [2] and in data set [3] was “+” each time.

In the case of “GARGQAGVMGFO (GARGQAGVMGF[Hyp]; not fully specified) [CI-alpha1]”, the DDR1 binding result in data set [1] was “+”. The DDR2 binding result in data set [2] and in data set [3] was “+” each time.

Regarding GPSGPRGQOGVMGFO [GPS-GFO], the DDR1 binding entry in data set [1] is reported as “+”. Also, the DDR2 binding entry in data set [2] and in data set [3] was “+” throughout.

Take “GPSGPRGQOGVM (GPSGPRGQ[Hyp]GVM; not fully specified) [GPS-GVN]”: the DDR1 binding entry in data set [1] is “− (a minus sign (−) indicates less than 10% of control)”. In addition, the DDR2 binding entry in data set [2] was “− (a minus sign (−) Indicates less than 20% of control)”; in data set [3], “− (a minus sign (−) indicates less than 10% of control)”.

As to “GPSGPRGQOGVAGFO (GPSGPRGQ[Hyp]GVAGF[Hyp]; not fully specified) [GPS-GFO-12A]”, the DDR1 binding entry in data set [1] is reported as “− (a minus sign (−) indicates less than 10% of control)”. In addition, the DDR2 binding entry is reported as “+” in data set [2] and “(+)/− ((+)/− indicates 20-30% of control)” in data set [3].

In the case of GPOGPQGVKGERGSDGGDGAAGFOGAR [III- ? 9], the DDR1 binding result in data set [1] was “− (a minus sign (−) indicates less than 10% of control)”. Also, the DDR2 binding entry in data set [3] is “+”.

On to “GAOGPLGIAGITGARGLAGPOGMOGPR (GA[Hyp]GPLGIAGITGARGLAGP[Hyp]GM[Hyp]GPR; not fully specified) [III-44]”, for which the DDR1 binding result in data set [1] was “− (a minus sign (−) indicates less than 10% of control)”. Further, the DDR2 binding result in data set [3] is “+”.

For “GPSGPRGQAGVMGFO (GPSGPRGQAGVMGF[Hyp]; not fully specified) [GPS-GFO-9A]”, the DDR1 binding entry in data set [1] is listed as “+”. Besides, the DDR2 binding entry in data set [2] and in data set [3] was “+” in each case.

For “GPSGPRGQOGAMGFO (GPSGPRGQ[Hyp]GAMGF[Hyp]; not fully specified) [GPS-GFO-11A]”, the DDR1 binding result in data set [1] is listed as “+”. Further, the DDR2 binding entry in data set [2] and in data set [3] was “+” each time.

Regarding “GPSGPAGQOGVMGFO (GPSGPAGQ[Hyp]GVMGF[Hyp]; not fully specified) [GPS-GFO-6A]”, in data set [1], the DDR1 binding entry was “+/− ((+/− indicates 30-80% of control)”. Also, the DDR2 binding entry in data set [2] is on record as “+”; in data set [3], “+/− ((+/− indicates 30-80% of control)”.

In the case of “GPSGPRGQOGVMGAO (GPSGPRGQ[Hyp]GVMGA[Hyp]; not fully specified) [GPS-GFO-14A]”, the DDR1 binding entry in data set [1] was “− (a minus sign (−) indicates less than 10% of control)”. Further, the DDR2 binding entry in data set [2] was “− (a minus sign (−) Indicates less than 20% of control)”; in data set [3], “− (a minus sign (−) indicates less than 10% of control)”.

For the substance “GPSGPRGAOGVMGFO (GPSGPRGA[Hyp]GVMGF[Hyp]; not fully specified) [GPS-GFO-8A]”, the DDR1 binding entry in data set [1] is listed as “+”. For the same substance, the DDR2 binding entry in data set [2] is reported as “+/− (+/ − indicates 20-80% of control)”; in data set [3], “+”.

For “GARGAQGPOGATGFOGAAGRVGPOGSN (GARGAQGP[Hyp]GATGF[Hyp]GAAGRVGP[Hyp]GSN; not fully specified) [II- ? 9, label partly illegible]”, the DDR1 binding entry in data set [1] is “+/− ((+/− indicates 30-80% of control)”. Further, the DDR2 binding result in data set [3] is on record as “+/− ((+/− indicates 30-80% of control)”.

For the substance “GPSGPRGQO (GPSGPRGQ[Hyp]; not fully specified) [GPS-GQO]”, the DDR1 binding entry in data set [1] is given as “− (a minus sign (−) indicates less than 10% of control)”. The DDR2 binding entry is “− (a minus sign (−) Indicates less than 20% of control)” in data set [2] and “− (a minus sign (−) indicates less than 10% of control)” in data set [3].

With “GAOGEDGROGPOGPQGARGQOGVMGFO (GA[Hyp]GEDGR[Hyp]GP[Hyp]GPQGARGQ[Hyp]GVMGF[Hyp]; not fully specified) [II-22]”, the DDR1 binding entry in data set [1] was “+”. The DDR2 binding entry in data set [2] and in data set [3] was “+” throughout.

With GLAGRQGIVGLDGQRGERGFOGLOGPS [II-44], the DDR1 binding result in data set [1] is “− (a minus sign (−) indicates less than 10% of control)”. In data set [3], the DDR2 binding result is “+”.

Take “GVMGFO (GVMGF[Hyp]; not fully specified)”: the DDR1 binding result in data set [1] was “+/− ((+/− indicates 30-80% of control)”. Also, the DDR2 binding entry in data set [2] is “+/− (+/ − indicates 20-80% of control)”; in data set [3], “+/− ((+/− indicates 30-80% of control)”.

For GASGDRGPOGPVGPOGLTGPAGEOGRE [II-46], the DDR1 binding result in data set [1] is on record as “+/− ((+/− indicates 30-80% of control)”. Moreover, in data set [3], the DDR2 binding result is “− (a minus sign (−) indicates less than 10% of control)”.

For “GQOGVMGFO (GQ[Hyp]GVMGF[Hyp]; not fully specified) [GQO-GFO]”, the DDR1 binding entry in data set [1] was “+/− ((+/− indicates 30-80% of control)”. Also, the DDR2 binding entry was “+” in data set [2] and “+/− ((+/− indicates 30-80% of control)” in data set [3].

As for “GARGEOGNIGFO (GARGE[Hyp]GNIGF[Hyp]; not fully specified) [CI-alpha2]”, the DDR1 binding entry in data set [1] was “+/− ((+/− indicates 30-80% of control)”. The DDR2 binding result in data set [2] is given as “− (a minus sign (−) Indicates less than 20% of control)”; in data set [3], “(+)/− ((+)/− indicates 20-30% of control)”.

With GFOGER [GPOGER], the DDR1 binding result in data set [1] is recorded as “− (a minus sign (−) indicates less than 10% of control)”. Also, the results for the DDR2 binding result in data set [2] and in data set [3] were “− (a minus sign (−) Indicates less than 20% of control)” and “− (a minus sign (−) indicates less than 10% of control)”, respectively.

As for “GPOGPSGPRGQOGVMGFOGPKGNDGAO (GP[Hyp]GPSGPRGQ[Hyp]GVMGF[Hyp]GPKGNDGA[Hyp]; not fully specified) [III-23]”, the DDR1 binding result in data set [1] is “+”. Further, the DDR2 binding result in data set [2] and in data set [3] was “+” each time.

Regarding “GQOGVMGFOGPKGANGEOGKAGEKGLO (GQ[Hyp]GVMGF[Hyp]GPKGANGE[Hyp]GKAGEKGL[Hyp]; not fully specified) [II-23]”, the DDR1 binding entry in data set [1] was “− (a minus sign (−) indicates less than 10% of control)”. Also, the DDR2 binding result in data set [2] and in data set [3] was “+” throughout.

For GERGLOGPOGIKGPAGIDGFOGMKGHR [III-5], in data set [1], the DDR1 binding entry is “− (a minus sign (−) indicates less than 10% of control)”. The DDR2 binding entry in data set [3] is listed as “+”.

For “GPRGQOGVMGFOGPK (GPRGQ[Hyp]GVMGF[Hyp]GPK; not fully specified) [GPR-GPK]”, in data set [1], the DDR1 binding entry is given as “(+)/− ((+)/− indicates 20-30% of control)”. The DDR2 binding result in data set [2] is reported as “− (a minus sign (−) Indicates less than 20% of control)”; in data set [3] it was “+”.

Turning to “GAKGSAGAOGIAGAOGFOGPRGPOGPQ (GAKGSAGA[Hyp]GIAGA[Hyp]GF[Hyp]GPRGP[Hyp]GPQ; not fully specified) [II- ? 3, label partly illegible]”, the DDR1 binding result in data set [1] is “− (a minus sign (−) indicates less than 10% of control)”. Besides, in data set [3], the DDR2 binding entry is given as “+”.

In the case of “GPSGARGQOGVMGFO (GPSGARGQ[Hyp]GVMGF[Hyp]; not fully specified) [GPS-GFO-5A]”, the DDR1 binding entry in data set [1] is recorded as “+”. Also, the values for the DDR2 binding result in data set [2] and in data set [3] were “− (a minus sign (−) Indicates less than 20% of control)” and “+”, respectively.
